From PubChem BioAssay AID256 (DTP/NCI, 2004)
Where “and” joins values, the source holds several entries; their conditions need not be identical. Equal values may be shown once. Toxic doses and inconclusive results are not listed. Non-standard residues stand in square brackets, D forms with d. Residues, ends and D or L forms follow the SMILES beside them. ξ: configuration not given here. *: point of attachment. ξW = NC(Cc1c[nH]c2ccccc12)C(=O)O; Cbz = O=C(OCc1ccccc1)*

Test system: CD2F1 mice, L1210 leukemia ip, survival T/C
Assay: NCI In Vivo Anticancer Drug Screen. Data for tumor model L1210 Leukemia (intraperitoneal) in CD2F1 (CDF1) mice
Conditions: higher = longer survival
Method in brief: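 Tumor-bearing mice (transplanted tumor) were split into treated and vehicle control groups, and the measured endpoint of each treated group was divided by that of its vehicle controls.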

[1] = endpoint: mean survival time, dose: 100.0 mg/kg/injection, schedule: Q01DX001 (ip), vehicle: saline with Tween-80
[2] = endpoint: mean survival time, dose: 200.0 mg/kg/injection, schedule: Q01DX001 (ip), vehicle: saline with Tween-80
[3] = endpoint: mean survival time, dose: 400.0 mg/kg/injection, schedule: Q01DX001 (ip), vehicle: saline with Tween-80
[4] = endpoint: mean survival time, dose: 100.0 mg/kg/injection, schedule: Q01DX009 (ip), vehicle: saline
[5] = endpoint: mean survival time, dose: 100.0 mg/kg/injection, schedule: Q04DX003 (ip), vehicle: saline with Tween-80
[6] = endpoint: mean survival time, dose: 200.0 mg/kg/injection, schedule: Q01DX009 (ip), vehicle: saline
[7] = endpoint: mean survival time, dose: 200.0 mg/kg/injection, schedule: Q04DX003 (ip), vehicle: saline with Tween-80
[8] = endpoint: mean survival time, dose: 400.0 mg/kg/injection, schedule: Q01DX009 (ip), vehicle: saline
[9] = endpoint: mean survival time, dose: 400.0 mg/kg/injection, schedule: Q04DX003 (ip), vehicle: saline with Tween-80
[10] = endpoint: mean survival time, dose: 100.0 mg/kg/injection, schedule: Q01DX009 (ip), vehicle: saline with Tween-80
[11] = endpoint: mean survival time, dose: 200.0 mg/kg/injection, schedule: Q01DX009 (ip), vehicle: saline with Tween-80
[12] = endpoint: mean survival time, dose: 50.0 mg/kg/injection, schedule: Q01DX009 (ip), vehicle: saline with Tween-80
[13] = endpoint: mean survival time, dose: 400.0 mg/kg/injection, schedule: Q01DX009 (ip), vehicle: saline with Tween-80
[14] = endpoint: mean survival time, dose: 25.0 mg/kg/injection, schedule: Q01DX009 (ip), vehicle: saline with Tween-80

CCOC(=O)NC(NC(=O)OCC)C(Cl)Cl
T/C [1]: 103 % of control | T/C [2]: 105 % of control | T/C [3]: 97 % of control

CC1COC(=O)O1 (configuration not stated)
T/C [4]: 101 % of control | T/C [5]: 97 % of control | T/C [6]: 98 % of control | T/C [7]: 97 % of control | T/C [8]: 101 % of control | T/C [9]: 96 % of control

COC(=O)C(NC(=O)CCNC(=O)OCc1ccccc1)C(C)C (configuration not stated)
T/C [10]: 95 % of control | T/C [11]: 101 % of control

O=C1CCC(Cl)S(=O)(=O)c2ccccc21 (configuration not stated)
T/C [1]: 97 % of control | T/C [2]: 105 % of control | T/C [3]: 94 % of control

NC(=O)c1ncn2c(=O)n(CCCl)nnc12
T/C (endpoint: median survival time, dose: 3.0 mg/kg/injection, schedule: Q01DX009 (ip), vehicle: saline): 174 % of control | T/C (endpoint: median survival time, dose: 3.12 mg/kg/injection, schedule: Q01DX009 (ip), vehicle: saline): 212 % of control | T/C (endpoint: median survival time, dose: 6.0 mg/kg/injection, schedule: Q01DX009 (ip), vehicle: saline): 223 % of control | T/C (endpoint: median survival time, dose: 6.25 mg/kg/injection, schedule: Q01DX009 (ip), vehicle: saline): 184 % of control and 214 % of control and 365 % of control | T/C (endpoint: median survival time, dose: 6.25 mg/kg/injection, schedule: Q01DX009 (ip), vehicle: suspension in saline): 182 % of control | T/C (endpoint: median survival time, dose: 12.0 mg/kg/injection, schedule: Q01DX009 (ip), vehicle: saline): 352 % of control | T/C (endpoint: median survival time, dose: 12.5 mg/kg/injection, schedule: Q01DX009 (ip), vehicle: saline): 222 % of control and 365 % of control (2×) | T/C (endpoint: median survival time, dose: 12.5 mg/kg/injection, schedule: Q01DX009 (ip), vehicle: suspension in saline): 322 % of control | T/C (endpoint: median survival time, dose: 25.0 mg/kg/injection, schedule: Q01DX009 (ip), vehicle: suspension in saline): 322 % of control | T/C (endpoint: median survival time, dose: 50.0 mg/kg/injection, schedule: Q01DX009 (ip), vehicle: suspension in saline): 100 % of control

CC(CC=O)CCCC(C)(C)O (configuration not stated)
T/C [5]: 103 % of control | T/C [7]: 95 % of control | T/C [9]: 98 % of control

O=C(O)C1CCC(C(=O)O)S1 (configuration not stated)
T/C (endpoint: mean survival time, dose: 100.0 mg/kg/injection, schedule: Q01DX001 (ip), vehicle: saline): 96 % of control | T/C (endpoint: mean survival time, dose: 200.0 mg/kg/injection, schedule: Q01DX001 (ip), vehicle: saline): 101 % of control | T/C (endpoint: mean survival time, dose: 400.0 mg/kg/injection, schedule: Q01DX001 (ip), vehicle: saline): 110 % of control

CCCCCC(Br)C(Br)CC(Br)C(Br)CCCCCCCC(=O)O (configuration not stated)
T/C (endpoint: mean survival time, dose: 100.0 mg/kg/injection, schedule: Q01DX009 (ip), vehicle: acetone): 95 % of control | T/C (endpoint: mean survival time, dose: 200.0 mg/kg/injection, schedule: Q01DX009 (ip), vehicle: acetone): 92 % of control | T/C (endpoint: mean survival time, dose: 400.0 mg/kg/injection, schedule: Q01DX009 (ip), vehicle: acetone): 90 % of control

CS(=O)(=O)c1nc(Cl)c(Cl)c(C#N)c1Cl
T/C (endpoint: mean survival time, dose: 5.0 mg/kg/injection, schedule: Q01DX009 (ip), vehicle: saline with Tween-80): 100 % of control | T/C (endpoint: mean survival time, dose: 10.0 mg/kg/injection, schedule: Q01DX009 (ip), vehicle: saline with Tween-80): 95 % of control | T/C (endpoint: mean survival time, dose: 20.0 mg/kg/injection, schedule: Q01DX009 (ip), vehicle: saline with Tween-80): 95 % of control

O=C1c2ccccc2C(=O)N1CCc1c[nH]c2ccccc12
T/C [1]: 102 % of control | T/C [2]: 104 % of control | T/C [3]: 104 % of control

O=C(Nc1ccc(C2=NCCN2)cc1)c1ccc(C(=O)Nc2ccc(C3=NCCN3)cc2)c(NC(=O)c2ccc(C(=O)Nc3cc(C(=O)Nc4ccc(C5=NCCN5)cc4)ccc3C(=O)Nc3ccc(C4=NCCN4)cc3)cc2)c1
T/C (endpoint: mean survival time, dose: 12.5 mg/kg/injection, schedule: Q01DX008 (iv), vehicle: other): 101 % of control | T/C (endpoint: mean survival time, dose: 25.0 mg/kg/injection, schedule: Q01DX008 (iv), vehicle: other): 101 % of control | T/C (endpoint: mean survival time, dose: 50.0 mg/kg/injection, schedule: Q01DX008 (iv), vehicle: other): 103 % of control

CCCCCCC#CC(O)CC (configuration not stated)
T/C [12]: 97 % of control | T/C [10]: 105 % of control

Cc1ccc(S(=O)(=O)N(C)c2ccc(C(=O)O)c(Cl)c2Cl)cc1
T/C [1]: 96 % of control | T/C [10]: 101 % of control | T/C [2]: 93 % of control | T/C [11]: 98 % of control | T/C [3]: 102 % of control | T/C [13]: 98 % of control

O=C1/C(=C(/c2ccccc2)N2CCOCC2)Cc2ccccc21
T/C (endpoint: mean survival time, dose: 6.25 mg/kg/injection, schedule: Q01DX009 (ip), vehicle: saline with Tween-80): 90 % of control | T/C (endpoint: mean survival time, dose: 6.25 mg/kg/injection, schedule: Q04DX003 (ip), vehicle: saline with Tween-80): 99 % of control | T/C (endpoint: mean survival time, dose: 12.5 mg/kg/injection, schedule: Q01DX009 (ip), vehicle: saline with Tween-80): 97 % of control | T/C (endpoint: mean survival time, dose: 12.5 mg/kg/injection, schedule: Q04DX003 (ip), vehicle: saline with Tween-80): 91 % of control | T/C [14]: 92 % of control | T/C (endpoint: mean survival time, dose: 25.0 mg/kg/injection, schedule: Q04DX003 (ip), vehicle: saline with Tween-80): 98 % of control

NC(=O)CNC(=O)C(Cc1c[nH]c2ccccc12)NC(=O)OCc1ccccc1 (configuration not stated) (Cbz-[ξW]-Gly-NH2)
T/C (endpoint: mean survival time, dose: 75.0 mg/kg/injection, schedule: Q04DX003 (ip), vehicle: saline): 93 % of control | T/C (endpoint: mean survival time, dose: 150.0 mg/kg/injection, schedule: Q04DX003 (ip), vehicle: saline): 97 % of control | T/C (endpoint: mean survival time, dose: 300.0 mg/kg/injection, schedule: Q04DX003 (ip), vehicle: saline): 98 % of control

NCC(O)O.NCC(O)O.NCC(O)O.NCC(O)O.[Mo].[Mo]
T/C [1]: 93 % of control | T/C [2]: 89 % of control | T/C [3]: 104 % of control

Cc1cc(NC(=O)Oc2ccc([N+](=O)[O-])cc2)ccc1S(=O)(=O)F
T/C [14]: 91 % of control and 98 % of control | T/C [12]: 87 % of control and 96 % of control | T/C [1]: 95 % of control | T/C (endpoint: mean survival time, dose: 100.0 mg/kg/injection, schedule: Q04DX002 (ip), vehicle: saline with Tween-80): 93 % of control and 100 % of control | T/C [5]: 94 % of control | T/C [2]: 101 % of control | T/C [11]: 91 % of control | T/C (endpoint: mean survival time, dose: 200.0 mg/kg/injection, schedule: Q04DX002 (ip), vehicle: saline with Tween-80): 93 % of control and 107 % of control | T/C [7]: 96 % of control | T/C [3]: 98 % of control | T/C (endpoint: mean survival time, dose: 400.0 mg/kg/injection, schedule: Q04DX002 (ip), vehicle: saline with Tween-80): 100 % of control and 103 % of control | T/C [9]: 102 % of control

COc1ccc(N=c2ssc(SC)c2-c2ccccc2)cc1
T/C [1]: 102 % of control | T/C [10]: 103 % of control | T/C [5]: 101 % of control | T/C [2]: 100 % of control | T/C [11]: 102 % of control | T/C [7]: 102 % of control | T/C [3]: 102 % of control | T/C [13]: 103 % of control | T/C [9]: 98 % of control

CC(O)C1OC(n2cnc3c(=O)[nH]cnc32)CC1O (configuration not stated)
T/C (endpoint: median survival time, dose: 12.5 mg/kg/injection, schedule: Q01DX005 (ip), vehicle: water): 100 % of control | T/C (endpoint: median survival time, dose: 25.0 mg/kg/injection, schedule: Q01DX005 (ip), vehicle: water): 100 % of control | T/C (endpoint: median survival time, dose: 50.0 mg/kg/injection, schedule: Q01DX005 (ip), vehicle: water): 104 % of control | T/C (endpoint: median survival time, dose: 100.0 mg/kg/injection, schedule: Q01DX005 (ip), vehicle: water): 102 % of control | T/C (endpoint: median survival time, dose: 200.0 mg/kg/injection, schedule: Q01DX005 (ip), vehicle: water): 102 % of control

COC(=O)c1cc(C)[nH]c(=O)c1C#N
T/C [10]: 100 % of control | T/C [5]: 95 % of control | T/C [11]: 100 % of control | T/C [7]: 98 % of control | T/C [13]: 94 % of control | T/C [9]: 96 % of control

N#CC(C#N)=NNc1ccc(S(=O)(=O)O)cc1
T/C [4]: 93 % of control | T/C [6]: 95 % of control | T/C [8]: 95 % of control
